Reference: patent publication US12612650B2, “Methods for improved homologous recombination and compositions thereof” (LIFE TECHNOLOGIES CORPORATION, priority 2017, dated 2026)

How the values were obtained:
[1] = system: genomic locus of beta-actin; assay: OFP-positive cells by flow cytometry after electroporation of Cas9 RNP and donor DNA into human primary T cells; assay type: cell-based; settings: 30 μM, 48 hours
Experimental: Human peripheral blood mononuclear cells (PBMCs) were isolated from peripheral blood using Ficoll-Paque PLUS density gradient according to manufacturer's instructions. The human primary T cells were then isolated using DYNABEADS™ UNTOUCHED™ Human T Cells Kit and expanded using OPTMIZER™ CTS™ T-Cell Expansion SFM supplemented with 200 IU/mL of IL-2. The activation and expansion of human T cells were carried out using DYNABEADS™ Human T-Expander CD3/CD28 kit. On day 3 of activation, T cells were harvested for transfection.
For transfection of primary T cells, 1×10^5 cells were used per NEON® electroporation with voltage set at 1700V, pulse width set at 20 ms, and the number of pulses set at 1, respectively. […] Cells were analyzed at 48 hours post transfection.
Traditionally, a plasmid donor was used to incorporate large DNA molecules into the genome. […] At 48 hours post transfection, we analyzed the percentages of OFP-positive cells using flow cytometry. […]
Linear ds- or ss-DNA donor could be degraded in vivo by exonucleases. […] At 48 hours post transfection, the percentages of OFP-positive cells were determined by flow cytometric analysis. […]
The disruption of NHEJ repair pathway is known to improve HDR efficiency. […] At 48 hours post transfection, we analyzed the cells by flow cytometry.

[2] = system: LRRK2 genomic locus; assay: Junction PCR and sequencing of clonal A549 cells, N-terminal tagging of LRRK2; assay type: cell-based, human
Experimental: 293FT or A549 cells were maintained in DMEM medium supplemented with 10% FBS. On the day of transfection, cells were detached from the culture flask and counted. For each electroporation, 1.5 μg of Cas9 protein and 360 ng of gRNA were added to Resuspension Buffer R to a final volume of 7 μl, but the total volume of Cas9 protein plus gRNA added was less than 1 μl. Upon mixing, the sample was incubated at room temperature for 5 to 10 minutes to form Cas9 RNPs complex. Meanwhile, aliquots of 1×10^6 cells were washed once with DPBS without Ca^2+ and Mg^2+ and the cell pellets were resuspended in 50 μl of Resuspension Buffer R. A 5 μl aliquot of cell suspension was then mixed with 7 μl of Cas9 RNPs, followed by addition of 1 μl indicated amount of donor DNA. 10 μl of cell suspension containing Cas9 RNP and donor was applied to NEON® electroporation (Thermo Fisher Scientific, cat. no. MPK5000) with voltage set at 1150V, pulse width set at 20 ms, and the number of pulses set at 2, respectively. The electroporated cells were transferred to a 48-well plate containing 0.5 ml culture media. Samples without either gRNA or donor DNA served as controls. At 48 hours post transfection, the cells were analyzed by flow cytometry. Alternatively, the genomic loci were PCR-amplified with the corresponding primers. The resulting PCR fragments were analyzed using the GENEART® Genomic Cleavage Detection assay. The edited cells were further subjected to limiting dilution, followed by clonal cell isolation. The clonal cells were characterized by PCR amplification of both the N- and C-terminal junctions and sequencing. The sequencing data were analyzed using VECTOR NTI ADVANCE® 11.5 software (Thermo Fisher Scientific).
Besides beta-actin, we also evaluated a different protein in a different cell line. LRRK2 protein is related to Parkinson's disease with a molecular weight of approximately 280 kd. A gRNA was designed to target the LRRK2 genomic locus near the start codon. Approximately 35 nt homology arms were added to a sequence-verified promoterless puromycin-P2A-EmGFP DNA fragment via PCR amplification. The Cas9 RNP and donor DNA were co-delivered into A549 cells via NEON® electroporation using 1050 volts, 30 milliseconds and 2 pulses. Because LRRK2 is relatively low abundant protein, we were not able to detect EmGFP signal inside the cells. […] To examine the integration efficiency, the cells were treated with 0.75 μg/ml puromycin for 7 days at 48 hours post transfection, followed by limiting dilution and clonal cell isolation. The junctions were analyzed by PCR using one inner primer and one outer primer, or a pair of outer primers. The resulting PCR products were analyzed by sequencing to determine the precision of integration. […]

[3] = LRRK2, N-terminus, A549 clonal cells

| Compound | increase of the percentage of OFP-positive cells ([1]; amine-modified donor DNA) | increase of the percentage of OFP-positive cells ([1]; unmodified donor DNA) | Efficiency at allele 1 HDR/Indel [2, 3] | Efficiency at allele 1 Precise HDR [2, 3] | Efficiency at allele 2 No HDR/Indel ([2]; LRRK2, N-terminus, A549 clonal cells, 7 nt deletion) | integration efficiency ([2]; all 86 colonies contained at least one copy of the insert) |
| --- | --- | --- | --- | --- | --- | --- |
| O=c1cc(N2CCOCC2)oc2c1ccc1ccccc12 [Nu7026, 2-(4-Morpholinyl)-4H-naphthol[1,2-b]pyran-4-one] | ~2 fold | approximately 5 fold |  |  |  |  |
| puromycin-P2A-EmGFP: donor DNA, 1.4 kb: promoterless puromycin-P2A-EmGFP fragment with approximately 35 nt homology arms to LRRK2 locus |  |  | 0% | 100% | 80% | 100% |
